Test results from EP4427807A1, “N-BRIDGED DIAZOCINE ANALOGUES OF CARBAMAZEPINE TO CONTROL NEURONAL ACTIVITY WITH LIGHT AND APPLICATIONS THEREOF” (Fundació Institut de Bioenginyeria de Catalunya (IBEC), priority 2023, dated 2024).
Entries after “also recorded” stand apart in the source; their conditions may differ. Like-named read-outs stand apart in the source and are kept apart here.

How the values were obtained:
[1] = system: primary hippocampal neurons; test: Current clamp recording of action potential firing in cultured primary hippocampal neurons; format: cell-based, Sprague-Dawley rat; conditions: Rattus norvegicus, Hippocampal neuron
Method: Procedures were performed in accordance with the European guidelines for animal care and use in research and were approved by the Animal Experimentation Ethics Committee at the University of Barcelona. Sprague-Dawley rat pups (P 1-5) were sacrificed by decapitation, hippocampi were isolated and treated with 0.1% trypsin in HBSS (10 min, 37°C). Neurons were plated on Poly-D-Lysine (PDL)-coated 16 mm coverslips (0.5-1 x 10^5 cells) and incubated at 37°C, 5% CO2 for 1,5 hours (to allow cells adhesion) in MEM supplemented with heat-inactivated FBS (5%), heat-inactivated HS (5%), penstrep (10 Ul/ml), L-glutamine (2mM) and glucose (20mM). Cells were cultured in Neurobasal A medium, supplemented with B-27 (5%), penstrep (5 Ul/ml), glutaMAX (0,5x) and glucose (15mM). On DIV 3 cultured cells were treated with 1 µM of Ara-C to prevent proliferation of non-neuronal cells. 50% of the maintenance medium was exchanged every 4 days.
Whole-cell recordings were performed at room temperature using an EPC-10 amplifier (HEKA Elektronik, Germany) and Patch Master software (HEKA). […] Firing of primary hippocampal neurons was recorded in current clamp configuration. […]
Data was analyzed using Igor Pro 6.05 (WaveMatrics, USA) and Origin 8.0 (OriginLab, USA) software. […] Statistical difference between groups was evaluated with Mann-Whitney test and was considered significant at the value of P below 0.05.

[2] = Quantification of photostationary states (PSS) by HPLC at the isosbestic point; format: physicochemical; conditions: for ratio between the two isomers: cis (Z) / ratio between the two isomers: trans (E): HPLC
Method: High-performance Liquid Chromatography (HPLC) analysis were performed with a Waters Alliance e2695 Separation Module paired with a Waters 2998 UV/vis Photodiode Array Detector (Diode array 190-800 nm) and a Waters AQUITY QDa Mass Detector (positive ionization ESI+). Samples were injected on a XSelect CSH C18 […] 4.6x50 mm analytical column with the following mobile phases, respectively called line A and B: water with formic acid 0.1% (v/v) and acetonitrile with formic acid 0.1% (v/v). The injections were eluted with the following method: flow 1.6 mL/min, gradient 0.00-4.50 min, 5-100% B; 4.50-5.00 min, 100-5% B.
(§1) The photochromic response was characterized by the absorption spectra after irradiation with LEDs at λ = 365 nm, 380 nm, 420 nm, 460 nm, 500 nm. The maximal changes in the spectra were associated to the optimal λ to isomerize from Z to E and vice versa. Resistance to photofatigue was tested by cycles of illuminations between the optimal λ. The kinetics of the spontaneous relaxation in the dark (time course of absorption at a fixed λ) was measured to quantify the relaxation lifetime by fitting the plots to an exponential decay curve. The UV-vis absorption analysis for the photochromic characterization has been carried out at room temperature. Stock solutions were prepared in the concentration of 10 mM in DMSO. The solutions used for the measurements were obtained by diluting the stock solutions in PBS at the desired final concentration (in the range of 30 µM and 50 µM). Finally, the photostationary states (PSS) were quantified using HPLC at the λ corresponding to the isosbestic point.
The quantification of photostationary states (PSS) has been measured by HPLC analysis. The peaks at the Diode Array have been detected and integrated at the wavelength corresponding to the isosbestic point.

[3] = system: zebrafish (Danio rerio) larvae; test: Behavioural study (swimming activity) in zebrafish larvae under light cycles; format: in vivo
Method: Wild-type zebrafish embryos (Tupfel long-fin strain) were purchased from the animal facility of the Barcelona Biomedical Research Park (PRBB) and raised in darkness for 7 days at 28 °C in UV filtered tap water in Petri dishes (daily cleaned and refilled). Animal development was checked every 24 hours. Unhealthy or abnormal embryos and larvae were removed and euthanatized in tricaine methanosulfonate (400 mg/l). All experiments and procedures were conducted according to the European Directive 2010/63/EU.
Behavioral studies were conducted on wild-type zebrafish larvae at 7 days post-fertilization (dpf). Vehicle and compounds were added with a multichannel pipette to exclude differences related to a delay in the application of each solution. Movements were recorded and analyzed using the ZebraBox tracking system and the ZebraLab software (ViewPoint Life Science, France). On the morning of the test, 7-dpf larvae were moved into a new batch of fresh water and checked for motility capabilities and possible physical mutations. Larvae were then randomly divided into control and treatment groups. Each individual was placed in a separate well of a 96-well plate, each containing 200 µl of fresh UV filtered water and left undisturbed in the dark for 30 min to get acquainted with the new setting (habituation time). Afterwards, 100 µL of water were removed from each well and replaced with 100 µl of a double concentrated vehicle or treatment solution. At this point, the plate was inserted into the ZebraBox and the recording period started. Animals were exposed to controlled cycles of dark, 380 nm, 420 nm, 500 nm wavelengths or with a halogen lamp (warm white light), using the illumination protocols represented by coloured-shaded areas in their respective graphs (see figures). Illumination at 380, 420 and 500 nm was performed with a built-in array of 12 LEDs placed 12 cm away from the multiwell plate. The halogen lamp used was the Volpi Intralux 4000 (115 W). Light intensities, measured with a Newport 1916-C optical power meter coupled to a Newport 918D-SL-OD3R detector, were 0.21 mW·cm^-2 (380 nm), 2.43 mW·cm^-2 (420 nm) and 0.69 mW·cm^-2 (500 nm). All experiments were conducted between 12.00 and 15.00 pm (UTC+01:00).
Alterations of locomotor activity were determined by monitoring and measuring fast movements, swimming distances and duration of high-speed swimming. In particular, the dependent variables measured included: total distance travelled, distance travelled at ≤ 2 mm·s^-1, distance travelled at 2-6 mm·s^-1, distance travelled at ≥ 6 mm·s^-1, time spent moving, time spent freezing, and number of bursts. The arbitrary cut-off for motility (6 mm·s^-1) was chosen because no variance was found among the groups at lower speeds. Figures show distances travelled over 6 mm·s^-1 and total movements (addition of movements below cut-off high speed swimming) were not considered to limit the error of the video recording on minimal movements. Data were analysed by two-way ANOVA with Tukey's post-hoc test for statistical significance (GraphPad Prism 6).

[4] = Photochemical characterization by UV-vis absorption (photoisomerization, thermal relaxation in the dark, photofatigue); format: physicochemical
Description: All reagents and solvents were purchased from Sigma-Aldrich and Cymit Quimica S.L. and were used without any further purification. Reactions were monitored by analytical thin layer chromatography (TLC) on commercial silica gel 60 F254 aluminum foils 20 x 20 cm (Merck). Spots were visualized under 254 or 365 nm UV lamp and/or with the use of an appropriate stain (ninidrine solution, Dragendorff reagent, alkaline potassium permanganate solution or phosphomolybdic acid solution 5% in ethanol). Compounds were purified by flash chromatography on PanReac Applichem silica gel 60 (40-63 µm) as stationary phase; the mobile phases are specified for each compound. All the UV/vis spectra and experiments were registered with Shimadzu UV-1800 UV-VIS spectrophotometer using quartz cuvettes (10 mm light path).
as §1, with “The” for “The photochromic response was characterized by the absorption spectra after irradiation with LEDs at λ = 365 nm, 380 nm, 420 nm, 460 nm, 500 nm. The”

[5] = after irradiation at 400 nm for 3 minutes, 374 nm
[6] = after irradiation at 500 nm for 3 minutes, 374 nm
[7] = benchtop dark condition, isosbestic wavelength 374 nm

NC(=O)N1Cc2ccccc2/N=N\c2ccccc21 [compound of formula (II), (Z)-dibenzo[c,g][1,2,5]triazocine-11(12H)-carboxamide]
activity at 30 µM ([1]; spontaneously firing neurons, without blue light (Fig 2B: 500 nm), P > 0.05, mean ± SD, read-out: frequency of the action potentials generation, % from control): 72 ± 5%
activity at 30 µM ([1]; under blue light (400 nm) illumination, P < 0.01, n=4, mean ± SD, read-out: frequency of the action potentials generation (firing), % from control): 28 ± 13%
ratio between the two isomers: cis (Z) [2, 5]: 49%
ratio between the two isomers: trans (E) [2, 5]: 51%
ratio between the two isomers: cis (Z) [2, 6]: ≥ 99%
ratio between the two isomers: trans (E) [2, 6]: not detected
ratio between the two isomers: cis (Z) [2, 7]: ≥ 99%
ratio between the two isomers: trans (E) [2, 7]: not detected
isomer present in the dark ([2]; in the dark, at benchtop conditions): fully converted into the Z inactive isomer
E to Z back-isomerization ([2]; irradiation at ≥ 500 nm): full back-isomerization to the Z inactive form
distance swum ([3]; 1 µM, after the third illumination with blue light (420 nm)): significant increase of the distance swum
swimming distances ([3]; 10 µM, average of all green (500 nm) periods): slightly increased
swimming activity ([3]; 10 µM, under blue light (420 nm)): increasing the activity of the larvae
swimming activity ([3]; 10 µM, under green illumination (500 nm)): returning to control levels
swimming activity ([3]; 50 µM, first blue light (420 nm) illumination periods, effect reduced with consecutive blue illumination): significantly hyperactive
signs of toxicity or distress in the larvae ([3]; 1-50 µM, 7 dpf zebrafish larvae): No signs of toxicity or distress
swimming distances ([3]; all concentrations (1, 10, 50 µM), green light (500 nm), each period compared individually to control): did not alter significantly the swimming distances
effect on swimming behaviour in the dark ([3]; first 20 minutes of the experiment, full darkness, 7 dpf larvae): no effects
hyperactivity of treated larvae ([3]; illumination with warm white light (halogen lamp), all treated groups): blocked the hyperactivity
E to Z isomerization ([4]; 90 W EPV halogen lamp (600-700 nm), after one minute irradiation): full conversion
E to Z isomerization ([4]; 590 nm LED, over 1 h irradiation): quantitative conversion to the Z isomer
half-life for relaxation in the dark t1/2 ([4]; dark conditions, PBS 0.01M, 25°C): 3.2 h
resistance to several cycles of illumination (photofatigue) ([4]; several cycles of illumination): without degradation or loss in photochromic properties; also recorded: without loss in absorption or degradation
